Test results from US20110045101A1, “FUNGICIDAL SUBSTITUTED AZOLES” (E.I. Du Pont De Nemours and Company, priority 2009, published 2011).
Marks after values point to notes of the source that are not given here.

Experiments:
Type in all cases: in vivo
Conditions in all cases: 100 = 100% disease control
[1] = test system: Puccinia recondita f. sp. tritici; assay: Test H: wheat leaf rust, test suspension sprayed after inoculation of wheat seedlings, visual disease rating
Outline: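 Wheat seedlings inoculated with P. recondita spores, held 24 h saturated at 20 °C, then 2 days in growth chamber at 20 °C; compound suspension (acetone/water with Trem 014) sprayed to run-off afterwards. Rated visually; 200 ppm (≈500 g/ha) unless marked *, which denotes 40 ppm.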

[2] = test system: Puccinia recondita f. sp. tritici; assay: Test I: wheat leaf rust on wheat seedlings, sprayed the day before inoculation, visual disease rating
Outline: (§1)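 Spray suspension: acetone 3% of final volume, then 50/50 acetone/water plus 250 ppm Trem® 014. Applied to run-off on seedlings at 200 ppm (≈500 g/ha); starred entries tested at 40 ppm.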

Botrytis cinerea = assay: Test C: tomato Botrytis on tomato seedlings, sprayed the day before inoculation, visual disease rating
Outline: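 Spray to run-off on tomato seedlings; test conc. 200 ppm (≈500 g/ha), some entries 40 ppm. Formulation: acetone 3% of final vol., then acetone/water 50:50 + 250 ppm polyhydric alcohol ester surfactant.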

[3] = test system: Erysiphe graminis f. sp. tritici; assay: Test J: wheat powdery mildew on wheat seedlings, sprayed the day before inoculation, visual disease rating
Outline: as §1

Septoria tritici = assay: Test G: wheat leaf blotch on wheat seedlings, sprayed the day before inoculation, visual disease rating
Outline: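 Compounds dissolved in acetone (3% of final volume), then suspended in 50/50 acetone/water with 250 ppm Trem® 014 and sprayed to run-off on seedlings at 200 ppm (≈500 g/ha) or 40 ppm where marked. Inoculation with spores followed next day; visual rating after 48 h saturated at 24° C plus 19 days at 20° C.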

Alternaria solani = assay: Test D: tomato early blight, sprayed the day before inoculation, visual disease rating
Outline: as §1

Septoria nodorum = assay: Test F: wheat glume blotch on wheat seedlings, sprayed the day before inoculation, visual disease rating
Outline: as §1

[4] = 200 ppm, 0 = no control relative to controls
[5] = 40 ppm (marked *), 0 = no control

Row | Compound | Test H disease control rating [1, 4] | Test I disease control rating [2, 4] | Test C disease control rating (Botrytis cinerea; [4]) | Test J disease control rating [3, 4] | Test G disease control rating (Septoria tritici; [4]) | Test D disease control rating (Alternaria solani; [4]) | Test F disease control rating (Septoria nodorum; [4]) | also measured
1 | COc1cc(F)c(-c2c(N(C)C)ncn2Cc2ccc(Cl)cc2)c(F)c1 [compound 265] |  |  |  |  |  |  |  | Test H disease control rating ([1]; 200 ppm, 0 = no control): 32%; Test I disease control rating ([2]; 200 ppm, 0 = no control): 61%; Test C disease control rating (Botrytis cinerea; 200 ppm, 0 = no control): 97%; Test J disease control rating ([3]; 200 ppm, 0 = no control): 0%; Test G disease control rating (Septoria tritici; 200 ppm, 0 = no control): 86%; Test D disease control rating (Alternaria solani; 200 ppm, 0 = no control): 0%; Test F disease control rating (Septoria nodorum; 200 ppm, 0 = no control): 60%
2 | COc1cc(F)c(-n2nnc(Br)c2-c2ccc(Cl)cc2)c(F)c1 [compound 474] | 0% | 36% | 99% | 95% | 90% | 57% | 0% | 
3 | Fc1cc(F)c(-c2c(Cl)ncn2-c2ccc(OC(F)(F)F)cc2)c(F)c1 [compound 587] | 7% | 0% | 25% | 97% | 97% | 80% | 0% | 
4 | COc1ccc(F)c(-c2c(Cl)nc(C)n2-c2cccc(C)c2)c1F [compound 335] |  |  |  |  |  |  |  | Test H disease control rating [1, 5]: 0* %; Test I disease control rating [2, 5]: 99* %; Test C disease control rating (Botrytis cinerea; [5]): 100* %; Test J disease control rating [3, 5]: 99* %; Test G disease control rating (Septoria tritici; [5]): 91* %; Test D disease control rating (Alternaria solani; [5]): 100* %; Test F disease control rating (Septoria nodorum; [5]): 82* %
5 | CCc1cccc(-n2c(C)nc(Cl)c2-c2c(F)ccc(OC)c2F)c1 [compound 418] | 0% | 97% | 100% | 100% | 100% | 100% | 99% | 
6 | Cc1cccc(-c2c(C)nc(Cl)n2-c2ccc(Cl)c(F)c2)n1 [compound 378] | 0% | 74% | 100% | 75% | 93% | 0% | 0% | 
7 | COc1ccc(Cl)c(-c2c(Cl)ncn2-c2ccc(Cl)cc2)c1F [compound 482] | 0% | 91% | 99% | 99% | 95% | 99% | 69% | 
8 | Cn1c(-c2c(Br)nc(Br)n2-c2ccc(Cl)cc2)nc(Br)c1Br [compound 372] | 0% | 74% | 99% | 0% | 91% | 0% | 0% | 
9 | Cc1ncc(-c2ccc(Cl)cc2)n1-c1c(F)cc([N+](=O)[O-])cc1F [compound 700] |  |  |  |  |  |  |  | Test H disease control rating ([1]; 40 ppm (marked *)): 0* %; Test I disease control rating ([2]; 40 ppm (marked *)): 0* %; Test C disease control rating (Botrytis cinerea; 40 ppm (marked *)): 93* %; Test J disease control rating ([3]; 40 ppm (marked *)): 0* %; Test G disease control rating (Septoria tritici; 40 ppm (marked *)): 53* %; Test D disease control rating (Alternaria solani; 40 ppm (marked *)): 0* %; Test F disease control rating (Septoria nodorum; 40 ppm (marked *)): 0* %
10 | COc1cc(OC)cc(-n2c(Cc3c(F)cc(F)cc3F)cnc2C)c1 [compound 533] | 15% | 92% | 0% | 82% | 49% | 0% | 0% | 
11 | COc1cc(F)c(-c2c(Cl)nc(Br)n2-c2ccc(C)c(C#N)c2)c(F)c1 [compound 607] |  |  |  |  |  |  |  | Test H disease control rating ([1]; 40 ppm (marked *)): 7* %; Test I disease control rating ([2]; 40 ppm (marked *)): 86* %; Test C disease control rating (Botrytis cinerea; 40 ppm (marked *)): 100* %; Test J disease control rating ([3]; 40 ppm (marked *)): 82* %; Test G disease control rating (Septoria tritici; 40 ppm (marked *)): 99* %; Test D disease control rating (Alternaria solani; 40 ppm (marked *)): 96* %; Test F disease control rating (Septoria nodorum; 40 ppm (marked *)): 31* %
12 | Fc1ccc(-n2c(Cl)nc(Cl)c2-c2ccc(Cl)c(F)c2)c(Cl)c1 [compound 302] | 17% | 98% | 100% | 100% | 94% | 100% | 0% | 
13 | COc1cc(F)c(-c2c(-c3ccc(I)cc3)c(OC)nn2C)c(F)c1 [compound 431] | 9% | 0% | 9% | 0% | 98% | 9% | 0% | 
14 | N#Cc1ccc(F)c(-c2c(Cl)nc(Br)n2-c2ccc(Cl)nc2)c1F [compound 701] | 7% | 100% | 100% | 95% | 99% | 100% | 91% | 
15 | COc1cc(F)c(-c2c(Cl)nc(Br)n2-c2ccc(C)c(Cl)c2)c(F)c1 [compound 542] |  |  |  |  |  |  |  | Test H disease control rating ([1]; 40 ppm (marked *)): 0* %; Test I disease control rating ([2]; 40 ppm (marked *)): 98* %; Test C disease control rating (Botrytis cinerea; 40 ppm (marked *)): 99* %; Test J disease control rating ([3]; 40 ppm (marked *)): 89* %; Test G disease control rating (Septoria tritici; 40 ppm (marked *)): 97* %; Test D disease control rating (Alternaria solani; 40 ppm (marked *)): 96* %; Test F disease control rating (Septoria nodorum; 40 ppm (marked *)): 0* %
16 | Fc1cc(-n2c(Cl)nc(Cl)c2-c2c(F)cncc2F)ccc1Cl [compound 593] | 99% | 100% | 100% | 100% | 96% | 100% | 99% | 
17 | Fc1cc(-n2c(Br)nc(Br)c2-c2c(F)ccc(F)c2F)ccc1Cl [compound 382] |  |  |  |  |  |  |  | Test H disease control rating [1, 5]: 0* %; Test I disease control rating [2, 5]: 95* %; Test C disease control rating (Botrytis cinerea; [5]): 100* %; Test J disease control rating [3, 5]: 97* %; Test G disease control rating (Septoria tritici; [5]): 96* %; Test D disease control rating (Alternaria solani; [5]): 99* %; Test F disease control rating (Septoria nodorum; [5]): 0* %
18 | CCc1nc(C)n(-c2ccc(Cl)cc2)c1-c1c(F)cccc1F [compound 305] |  |  |  |  |  |  |  | Test H disease control rating [1, 5]: 11* %; Test I disease control rating [2, 5]: 0* %; Test C disease control rating (Botrytis cinerea; [5]): 63* %; Test J disease control rating [3, 5]: 0* %; Test G disease control rating (Septoria tritici; [5]): 23* %; Test D disease control rating (Alternaria solani; [5]): 0* %; Test F disease control rating (Septoria nodorum; [5]): 0* %
19 | Fc1ccc(F)c(-c2c(Br)ncn2-c2ccc(Cl)cc2)c1F [compound 330] | 9% | 98% | 100% | 99% | 96% | 100% | 0% | 
20 | COc1cc(F)c(-c2c(Br)ncn2-c2ccc(C)nc2)c(F)c1 [compound 555] | 0% | 100% | 100% | 98% | 98% | 99% | 69% | 
21 | COc1cc(F)c(-c2c(C)nc(Cl)n2-c2ccc(OC)nc2)c(F)c1 [compound 737] | 100% | 100% | 100% | 100% | 100% | 100% | 100% | 
22 | COc1cc(F)c(-c2c(Cl)nc(Br)n2-c2ccc(C(F)(F)F)nc2)c(F)c1 [Compound 707, 5-[2-bromo-4-chloro-5-(2,6-difluoro-4-methoxyphenyl)-1H-imidazol-1-yl]-2-(trifluoromethyl)pyridine] |  |  |  |  |  |  |  | pest or weed control at 200 ppm ([1]; Puccinia recondita, 96 h, 200 ppm, 0 = no control relative to controls): 67%; pest or weed control at 200 ppm ([2]; Puccinia recondita, 168 h, 200 ppm, 0 = no control relative to controls): 100%; pest or weed control at 200 ppm (Botrytis cinerea; Botrytis cinerea, 120 h, 200 ppm, 0 = no control relative to controls): 100%; pest or weed control at 200 ppm ([3]; Blumeria graminis, 168 h, 200 ppm, 0 = no control relative to controls): 100%; pest or weed control at 200 ppm (Septoria tritici; Zymoseptoria tritici, 504 h, 200 ppm, 0 = no control relative to controls): 99%; pest or weed control at 200 ppm (Alternaria solani; Alternaria solani, 168 h, 200 ppm, 0 = no control relative to controls): 100%; pest or weed control at 200 ppm (Septoria nodorum; Parastagonospora nodorum, 264 h, 200 ppm, 0 = no control relative to controls): 100%
23 | COc1cc(F)c(-c2c(Br)ncn2-c2ccc(F)cc2)c(F)c1 [compound 506] | 78% | 100% | 100% | 99% | 99% | 100% | 92% | 
